Reference: patent publication US20240228411A1, “Functionalization of Lightly Branched Olefin Oligomers” (ExxonMobil Chemical Patents Inc., priority 2021, published 2024)
Counter-ions that a name gives are not always drawn.

Assays:
Assay type in all cases: physicochemical
[1] = Critical micelle concentration in water, Kruss K100 tensiometer
Description: Critical micelle concentrations in water were measured using an A Kruss Laboratory K100 tensiometer. CMC values were determined using the K100 instrument's fully automated measurement method, as described further in the K100 instrument's operating manual.

Wetting time, skein test = details: average of three measurements; for Wetting time (1 g/L): 1 g/L surfactant; for Wetting time (2 g/L): 2 g/L surfactant
Description: Wetting time was measured by heating an aqueous mixture of the surfactant in an oven for 15-20 minutes at 50-60° C. and homogenizing regularly. 1+/−0.1 g or 2+/−0.1 g of the surfactant was weighed into a 1 L volumetric flask, and distilled water was added by portions of 200-300 mL and agitating regularly. After the resulting foam disappeared, the volume was adjusted to the 1 liter level. Skein yams were removed from their packaging and hung for a period of time before measurement. The surfactant solution was poured into a graduated cylinder (1 L), and foam was removed with a small nitrogen or air flow. The skein was folded one time. A hook was fastened with its anchor at one end of the folded skein, and at the opposite end, the skein was cut through. The cut skein was then compacted. The skein was held with the anchor and the weight above the 1-liter graduated cylinder containing the surfactant solution. A stopwatch was activated just as the skein was released into the surfactant solution. The stopwatch was stopped once the skein started to sink. The average of three measurements using fresh surfactant solution and a new skein each time is reported. Wetting results are specified in Table 5 below.

[2] = Calcium tolerance (hard water tolerance), surfactant remaining in filtrate by HPLC-ELSD; details: 25° C., 450 ppm surfactant, 420 ppm cations (3:1 Ca2+:Mg2+), overnight
Description: Calcium tolerance was measured at 25° C. using the following procedure. A surfactant solution containing 450 ppm of alcohol sulfate surfactant and 420 ppm cations (3:1 Ca^2+:Mg^2+) was prepared and allowed to stand overnight. Crystals formed during this time. The supernatant liquid was removed and passed through a 0.22 μm filter to provide a filtrate. The filtrate was then analyzed for surfactant residue. Analysis of the surfactant and salt residue was performed using an Agilent 1100 HPLC combined with SEDEX 75 evaporative light scattering detector (ELSD) using the run conditions specified in Table 4 below. Peak height was utilized to analyze surfactant concentration. Some samples were repeated in triplicate. Calcium tolerance results are specified in Table 5 below.

[3] = Solubility in water at 25° C., visual observation; details: 2-3 hours magnetic stirring
Description: Solubility measurements were conducted in water at 25° C. Solubility was determined through visual observation after 2-3 hours of magnetic stirring of surfactant solutions having variable concentrations.

| SMILES | CMC [1] [g/g] | Wetting time (1 g/L) (Wetting time, skein test) [s] | Wetting time (2 g/L) (Wetting time, skein test) [s] | Calcium tolerance (ppm surfactant remaining) [2] [ppm] | Solubility at 25° C. [3] [% Wt. %] |
| --- | --- | --- | --- | --- | --- |
| CCCC(C)CCCC(C)CCCOS(=O)(=O)O (centres unmarked) [Isotridecyl Sulfate-2, C# = 13, 4,8-dimethylundecan-1-sulfate] | 0.00129 | 6.1 | 2.3 |  |  |
| CCCCCCCCCCCCCOS(=O)(=O)[O-].[Na+] [Sodium n-Tridecyl Sulfate] | 0.001 | 6.3 | 3.1 | 11.2 | <0.5 |
